Where “and” joins values, the source holds several entries; their conditions need not be identical. Equal values may be shown once.
What was measured:
[1] = system: human pluripotent stem cells; assay: HD-DoE #2: 13-factor model, differentiation toward anterior neuroectoderm, gene expression; format: cell-based; conditions: dynamic profiling analysis, 13-factor model
Source text: To further enhance the conditions for oligodendrocyte differentiation from pluripotency, we performed an additional HD-DoE experiment. We obtained additional gene regulatory models that were used for preparation of a differentiation protocol. The basis of this was a 13-factor HD-DoE experiment with focus on initiation of differentiation of cells toward anterior neuroectoderm. In this model, we focused on expression of FEZF2 and OTX2.
As shown in the results summarized in FIG. 4, the model was optimized for highest expression of OTX2 at 12755.9. According to the model of high expression of OTX2, seven effectors had positive contribution including MK2206, PD0325901, CHIR99021, LDN193189, Go6983, PD173074 and BLU9931 with highest factor contribution of 22.2 for MK2206 and lowest factor contribution of 1.7 for PD173074 and BLU9931.
As shown in the results summarized in FIG. 5, the model was optimized for highest expression of FEZF2 at 4466. When the model was optimized for maximum expression level of FEZF2, three effectors including LDN193189 with factor contribution of 19.5, PD0325901 with factor contribution of 14.6 and MK2206 with factor contribution of 12.3 were common with previous condition and three new effectors including purmorphamine-500 nM, XAV939 and SC79 were introduced.
As shown in the results summarized in FIG. 6, to fine-tune the recipe and find the optimum combination of factors for high expression of both OTX2 and FEZF2, dynamic profiling analysis was done. […] Therefore, these two factors were added to the optimized culture recipe.

pre-OPCs [2] = assay: HD-DoE second 12-factor model for stage 2 (Purmorphamine with TTNPB, Biotin, Insulin etc.); format: cell-based, human; conditions: optimized for OLIG2 at 3299.4; positive impact
Description: (§1) To gain more information about the effect of Purmorphamine on differentiation of pre-OPCs to a more committed cell population, we tested this factor in two other models. In a 12-factor model, we included Purmorphamine, FGF2, AGN193109 and CHIR99021 along with 8 new inputs including TTNPB, Biotin, Insulin, propionate, DBZ, Yhhu3792, LDN193189 and Y-27632. […] In another 12-factor model, Purmorphamine was tested along with A 8301, CHIR99021, Dexamethasone, T3+T4, PD0325901, ZM336372, DBZ, BMP7, PD173074, SANT-1 and PDGF-AA.

stage 1 pre-OPCs = assay: HD-DoE third 12-factor model for stage 2 (Purmorphamine with A 8301, Dexamethasone etc.); format: cell-based, human; conditions: optimized for OLIG2 at 644.6; positive impact
Description: as §1

pre-OPCs [3] = assay: HD-DoE 8-factor model for stage 2 (version 2) on pre-OPCs; format: cell-based, human; conditions: positive
Description: To engineer the recipe of stage 2 of differentiation, cells were first cultured in the stage 1 media described in Example 1, then, 48 or 96 different combinations of effectors generated using Design-of-Experiments compression through D-optimality were robotically prepared. The effector combinations were prepared in a basal media and were subsequently added to the cells, which were then allowed to differentiate. Three days later RNA extraction was performed, and gene expression was obtained using quantitative PCR analysis. The data was normalized and modeled using partial least squares regression analysis to the effector design, resulting in the generation of gene-specific models, which after model tuning for maximal predictive power, provided explanation of the effectors ability to control the expression of individual genes, combinatorically, and individually. Solutions within the tested space could then be explored to address desirability.
At this point, due to short duration of culture (only six days in vitro) we decided to focus on maximal expression of OLIG2 and maintenance of high expression of NKX2-2, while initiating expression of SOX10, OLIG1 and PDGFRa, to guide the cells towards oligodendrocyte fate (Emery and Lu (2015). Cold Spring Harb Perspect Biol. 7:a020461; Perlman et al. (2020). Glia 68:1291-1303; Goldman and Kuypers (2015) Development 142:3983-95). In one 8-factor model, the individual and combinatorial impact of CHIR99021 (a WNT pathway agonist), AGN193109 (an RA pathway antagonist), FGF-2 (an FGFR agonist), Purmorphamine (an SHH pathway agonist), AICAR (an AMPK agonist), GW3965 (an LXR pathway agonist), GW590735 (a PPAR-a agonist) and AZD3147 (a mTOR antagonist) on further differentiation of cells were tested.

OPCs [4] = assay: HD-DoE 8-factor model for stage 4 on OPCs; format: cell-based, human; conditions: optimized for maximal expression of CNP at 1339; positive
Description: (§2) To engineer the recipe of stage 4 of differentiation, 48 or 96 different combinations of effectors generated using Design-of-Experiments compression through D-optimality were robotically prepared. The effector combinations were prepared in a basal media and were subsequently added to the cells, which were treated with the stage 1, stage 2 and stage 3 differentiation media as described in the earlier examples to generate OPCs. […] Solutions within the tested space could then be explored to address desirability.

OPCs [5] = assay: HD-DoE 12-factor model for stage 4 on OPCs, 6 days in culture; format: cell-based, human; conditions: optimized for PLP1 at 3600; negative impact
Description: as §2, with “desirability. […] Benarroch (2009) Neurology 72:1779-1785; Shi et al. (2019) Exp Ther Med, 18:1258-1266).” for “desirability.”

[6] = system: cells cultured in stage 1 and stage 2 differentiation media; assay: Two further HD-DoE models optimized for SOX10 (IGF-1, FGF-2, AGN193109); format: cell-based, human; conditions: two other models optimized for SOX10
Source text: According to literature, proteins such as FGF-2, IGF-1, PDGF-AA and NT-3 play an important role in oligodendrocyte differentiation (Goldman and Kuypers (2015) Development 142:3983-95). In the first model, FGF-2 had positive regulatory impact only on the expression level of SOX10 and IGF-1 on PDGFRa. Therefore, to further understand the impact of IGF-1 and FGF-2 on differentiation of cells and confirm their positive role, we included these factors in two other models and optimized the models for maximum expression of SOX10. This gene is one of the main transcription factors of oligodendrocytes, along with OLIG2 and NKX2-2 that has shown the potential to commit the stem cells to oligodendrocytes in reprogramming efforts (Wang et al, (2014) Proc Natl Arad Sri USA 111:E2885-94; García-León et al. (2018) Stem Cell Reports 10:655-672).

[7] = optimized for maximum expression of OLIG1 at 454.7
[8] = optimized for maximum expression of OLIG2 at 3325

Compound: c1ccc2c(Oc3nc(Nc4ccc(N5CCOCC5)cc4)c4ncn(C5CCCCC5)c4n3)cccc2c1 [Purmorphamine]
- effect on expression of FEZF2 [1]: significant positive effects
- impact on expression level of OTX2 [1]: no negative impact
- factor contribution (pre-OPCs [2]): 13 and 13.03
- factor contribution (stage 1 pre-OPCs): 16.9
- factor contribution (pre-OPCs [3]; [7]): 22.75
- factor contribution (pre-OPCs [3]; [8]): 7.39
- factor contribution (OPCs [4]): 10
- factor contribution (OPCs [5]): 10

Compound: FGF2: FGF pathway activator, an FGFR agonist
- factor contribution (pre-OPCs [3]; [7]): 9.9
- factor contribution (pre-OPCs [3]; [8]): 5.2
- impact on the expression level of SOX10 [6]: positive impact

Source: patent publication US12729368B2, “Methods and compositions for generating oligodendrocyte progenitor cells” (Trailhead Biosystems Inc., priority 2022, dated 2026)
